Data published in patent US8114903B2, “Cytokine modulators using cyclic glycerides of essential polyunsaturated fatty acids” (BTG International Limited, priority 2005, dated 2012).
Like-named read-outs stand apart in the source and are kept apart here.

Key:
TGF-β1 [1] = test: TGF-β1 production by spleen mononuclear cells of C57/BL mice dosed orally with 2 GLA MG formal (ELISA); assay type: in vivo; details: for Spleen mononuclear cell TGFβ production: Con A and unstimulated data combined, n=9/group, mean ± SEM
Experimental: C57/BL mice were dosed orally with 2 GLA MG formal at two doses of 50 and 150 ul for eight days. The compound was supplied in 8 separate tubes to be stored at 4° C. prior to dosing but warmed to 25° C. before use.
Data were therefore combined for the purposes of statistical analysis (n=9/group). Data were analysed using Graphpad Instat.

[2] = Storage stability in air at room temperature; assay type: physicochemical; details: similar to GLA, best stored long term in a cool place under nitrogen
Experimental: For the purposes of this exemplification, the synthesis of this ester was carried out by acylation of the commercially available glycerol formal mixture using γ-linolenoyl chloride. By this method a mixture of two products is formed and these were separable by column chromatography. The undesired by-product is eluted off the column first; further elution gives the desired acetal-ester.

TGF-β1 [3] = details: monoglyceride 50 μg
Experimental: Solublization of Sn-2 monoglyceride was performed using ethyl alcohol or DMSO for in vitro work on human peripheral blood mononuclear cells (PBMCs). […] SJL mice were fed sn-2 GLA of Example 1 at three doses (50, 125 and 250 μl) for seven days by gavage. […] After seven days animals were killed and the brain, liver and spleen were removed the liver and brain frozen at −70° C. and mononuclear cells were isolated from spleens by sieving and density centrifugation on Lymphoprep (Sigma Chemical Co) and cultured at 37° C. in 5% CO2 atmosphere in 5 ml culture tubesat a cell density of 1×10^6 cells/ml in RPMI 1640 medium in 5% foetal calf serum (FCS). Cells were cultured with and without 1 μg/ml or […] concanavalin A (Con A) for approximately 20 hours and the supernatants removed and stored at −70° C. until required. Mouse […] was measured in supernatants using a commercially available ELISA (Promega, Madison Wis.).

[4] = mouse, in vivo

SMILES	Spleen mononuclear cell TGFβ production (TGF-β1 [1]; 50 ul orally for eight days)	Increase of spleen mononuclear cell TGFβ production vs controls (TGF-β1 [1]; 150 ul orally for eight days)	Spleen mononuclear cell TGFβ production (TGF-β1 [1]; 150 ul orally for eight days)	Stability in air [2]	Change % of TGF-β1 production vs control (TGF-β1 [3]; Con A 0 μg/ml)	TGF-β1 production from spleen PBMCs, unstimulated (TGF-β1 [3]; Con A 0 μg/ml, fed by gavage for seven days, cells cultured about 20 hours)	Change % of TGF-β1 production vs control (TGF-β1 [3]; Con A 1 μg/ml)	TGF-β1 production from spleen PBMCs, stimulated (Con A) (TGF-β1 [3]; Con A 1 μg/ml, fed by gavage for seven days, cells cultured about 20 hours)	Change % of TGF-β1 production vs control (TGF-β1 [3]; Con A 25 μg/ml)	TGF-β1 production from spleen PBMCs, stimulated (Con A) (TGF-β1 [3]; Con A 25 μg/ml, fed by gavage for seven days, cells cultured about 20 hours)	Regurgitation after gavage [4]
CCCCC/C=C\C/C=C\C/C=C\CCCCC(=O)OC1COCOC1 [GLA 2-MG-F, 5-(γ-linolenoyloxy)-1,3-dioxan]	90.9 ± 5.2 pg/mL	P < 0.0001 ↑ 103%	158.6 ± 7.5 pg/mL	stable in air at room temperature for short periods (days)	–	–	–	–	–	–	–
CCCCC/C=C\C/C=C\C/C=C\CCCCC(=O)OC(CO)CO [γ-linolenic acid monoglyceride]	–	–	–	–	80%	377 pg/mL	79%	409 pg/mL	42%	480 pg/mL	prone to regurgitation
